Measured values published in patent publication US12049450B2, “Pyridyloxy-carboxylate derivative and preparation method therefor, herbicidal composition, and use” (Qingdao Kingagroot Chemical Compound Co., Ltd., priority 2018, dated 2024).

How the values were obtained:
Assay in all cases: Post-emergence test experiment (greenhouse pot, spray at 2-3 leaf stage)
Type in all cases: in vivo
Conditions in all cases: 1000 g/ha; post-emergence spray at 2-3 leaf stage; assessed after 3 weeks; fresh weight inhibition rate
Galium spurium = tested on: Galium spurium
Procedure, shortened: (§1)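 Weed seeds sown in soil-filled pots in greenhouse, sprayed at 2-3 leaf stage (2 weeks after sowing) with compound in acetone/tween-80 plus methyl oleate emulsible concentrate (1.5 L/ha) diluted in water. Fresh-weight growth inhibition scored after 3 weeks on 0-5 scale (5: >85%, 0: <5%).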

Abutilon theophrasti = tested on: Abutilon theophrasti
Procedure, shortened: as §1

Echinochloa crusgalli = tested on: Echinochloa crusgalli
Procedure, shortened: as §1

Digitaria sanguinalis = tested on: Digitaria sanguinalis
Procedure, shortened: as §1

Monochoria vaginalis = tested on: Monochoria vaginalis
Procedure, shortened: as §1

SMILES	Activity level (growth inhibition rate) Galium spurium (Galium spurium)	Activity level (growth inhibition rate) Abutilon theophrasti (Abutilon theophrasti)	Activity level (growth inhibition rate) Echinochloa crusgalli (Echinochloa crusgalli)	Activity level (growth inhibition rate) Digitaria sanguinalis (Digitaria sanguinalis)	Activity level (growth inhibition rate) Monochoria Vaginalis (Monochoria vaginalis)
CC(Oc1nc(F)c(Cl)c(N)c1Cl)C(=O)SCc1ccccc1F (stereo not shown) [Compound 221]	5 (Level 5: the growth inhibition rate is greater than 85%)	5 (Level 5: the growth inhibition rate is greater than 85%)	5 (Level 5: the growth inhibition rate is greater than 85%)	5 (Level 5: the growth inhibition rate is greater than 85%)	5 (Level 5: the growth inhibition rate is greater than 85%)
CC(Oc1nc(F)c(Cl)c(N)c1Cl)C(=O)SCc1cccc(F)c1 (stereo not shown) [Compound 222]	5 (Level 5: the growth inhibition rate is greater than 85%)	5 (Level 5: the growth inhibition rate is greater than 85%)	5 (Level 5: the growth inhibition rate is greater than 85%)	5 (Level 5: the growth inhibition rate is greater than 85%)	5 (Level 5: the growth inhibition rate is greater than 85%)
CC(Oc1nc(F)c(Cl)c(N)c1Cl)C(=O)SCc1ccc(F)cc1 (stereo not shown) [Compound 223]	5 (Level 5: the growth inhibition rate is greater than 85%)	5 (Level 5: the growth inhibition rate is greater than 85%)	5 (Level 5: the growth inhibition rate is greater than 85%)	5 (Level 5: the growth inhibition rate is greater than 85%)	5 (Level 5: the growth inhibition rate is greater than 85%)
CC(Oc1nc(F)c(Cl)c(N)c1Cl)C(=O)SCc1ccccc1C#N (stereo not shown) [Compound 224]	5 (Level 5: the growth inhibition rate is greater than 85%)	5 (Level 5: the growth inhibition rate is greater than 85%)	5 (Level 5: the growth inhibition rate is greater than 85%)	5 (Level 5: the growth inhibition rate is greater than 85%)	5 (Level 5: the growth inhibition rate is greater than 85%)
CC(Oc1nc(F)c(Cl)c(N)c1Cl)C(=O)SCc1ccc(C#N)cc1 (stereo not shown) [Compound 225]	5 (Level 5: the growth inhibition rate is greater than 85%)	5 (Level 5: the growth inhibition rate is greater than 85%)	5 (Level 5: the growth inhibition rate is greater than 85%)	5 (Level 5: the growth inhibition rate is greater than 85%)	5 (Level 5: the growth inhibition rate is greater than 85%)
CC(Oc1nc(F)c(Cl)c(N)c1Cl)C(=O)SCc1cccc(C#N)c1 (stereo not shown) [Compound 226]	5 (Level 5: the growth inhibition rate is greater than 85%)	5 (Level 5: the growth inhibition rate is greater than 85%)	5 (Level 5: the growth inhibition rate is greater than 85%)	5 (Level 5: the growth inhibition rate is greater than 85%)	5 (Level 5: the growth inhibition rate is greater than 85%)
CC(Oc1nc(F)c(Cl)c(N)c1Cl)C(=O)SCc1ccccc1Cl (stereo not shown) [Compound 227]	5 (Level 5: the growth inhibition rate is greater than 85%)	5 (Level 5: the growth inhibition rate is greater than 85%)	5 (Level 5: the growth inhibition rate is greater than 85%)	5 (Level 5: the growth inhibition rate is greater than 85%)	5 (Level 5: the growth inhibition rate is greater than 85%)
CC(Oc1nc(F)c(Cl)c(N)c1Cl)C(=O)SCc1ccc(Cl)cc1 (stereo not shown) [Compound 228]	5 (Level 5: the growth inhibition rate is greater than 85%)	5 (Level 5: the growth inhibition rate is greater than 85%)	5 (Level 5: the growth inhibition rate is greater than 85%)	5 (Level 5: the growth inhibition rate is greater than 85%)	5 (Level 5: the growth inhibition rate is greater than 85%)
CC(Oc1nc(F)c(Cl)c(N)c1Cl)C(=O)SCc1ccccc1Br (stereo not shown) [Compound 229]	5 (Level 5: the growth inhibition rate is greater than 85%)	5 (Level 5: the growth inhibition rate is greater than 85%)	5 (Level 5: the growth inhibition rate is greater than 85%)	5 (Level 5: the growth inhibition rate is greater than 85%)	5 (Level 5: the growth inhibition rate is greater than 85%)
CC(Oc1nc(F)c(Cl)c(N)c1Cl)C(=O)SCc1cccc(Br)c1 (stereo not shown) [Compound 230]	5 (Level 5: the growth inhibition rate is greater than 85%)	5 (Level 5: the growth inhibition rate is greater than 85%)	5 (Level 5: the growth inhibition rate is greater than 85%)	5 (Level 5: the growth inhibition rate is greater than 85%)	5 (Level 5: the growth inhibition rate is greater than 85%)
CC(Oc1nc(F)c(Cl)c(N)c1Cl)C(=O)SCc1ccc(Br)cc1 (stereo not shown) [Compound 231]	5 (Level 5: the growth inhibition rate is greater than 85%)	5 (Level 5: the growth inhibition rate is greater than 85%)	5 (Level 5: the growth inhibition rate is greater than 85%)	5 (Level 5: the growth inhibition rate is greater than 85%)	5 (Level 5: the growth inhibition rate is greater than 85%)
CC(Oc1nc(F)c(Cl)c(N)c1Cl)C(=O)SCc1ccccc1C(F)(F)F (stereo not shown) [Compound 232]	5 (Level 5: the growth inhibition rate is greater than 85%)	5 (Level 5: the growth inhibition rate is greater than 85%)	5 (Level 5: the growth inhibition rate is greater than 85%)	5 (Level 5: the growth inhibition rate is greater than 85%)	5 (Level 5: the growth inhibition rate is greater than 85%)
CC(Oc1nc(F)c(Cl)c(N)c1Cl)C(=O)SCc1cccc(C(F)(F)F)c1 (stereo not shown) [Compound 233]	5 (Level 5: the growth inhibition rate is greater than 85%)	5 (Level 5: the growth inhibition rate is greater than 85%)	5 (Level 5: the growth inhibition rate is greater than 85%)	5 (Level 5: the growth inhibition rate is greater than 85%)	5 (Level 5: the growth inhibition rate is greater than 85%)
CC(Oc1nc(F)c(Cl)c(N)c1Cl)C(=O)SCc1ccc(C(F)(F)F)cc1 (stereo not shown) [Compound 234]	5 (Level 5: the growth inhibition rate is greater than 85%)	5 (Level 5: the growth inhibition rate is greater than 85%)	5 (Level 5: the growth inhibition rate is greater than 85%)	5 (Level 5: the growth inhibition rate is greater than 85%)	5 (Level 5: the growth inhibition rate is greater than 85%)
CC(Oc1nc(F)c(Cl)c(N)c1Cl)C(=O)SCc1ccccn1 (stereo not shown) [Compound 235]	5 (Level 5: the growth inhibition rate is greater than 85%)	5 (Level 5: the growth inhibition rate is greater than 85%)	5 (Level 5: the growth inhibition rate is greater than 85%)	5 (Level 5: the growth inhibition rate is greater than 85%)	5 (Level 5: the growth inhibition rate is greater than 85%)
CC(Oc1nc(F)c(Cl)c(N)c1Cl)C(=O)SCc1ccncc1 (stereo not shown) [Compound 236]	5 (Level 5: the growth inhibition rate is greater than 85%)	5 (Level 5: the growth inhibition rate is greater than 85%)	5 (Level 5: the growth inhibition rate is greater than 85%)	5 (Level 5: the growth inhibition rate is greater than 85%)	5 (Level 5: the growth inhibition rate is greater than 85%)
CC(Oc1nc(F)c(Cl)c(N)c1Cl)C(=O)SCc1cccnc1 (stereo not shown) [Compound 237]	5 (Level 5: the growth inhibition rate is greater than 85%)	5 (Level 5: the growth inhibition rate is greater than 85%)	5 (Level 5: the growth inhibition rate is greater than 85%)	5 (Level 5: the growth inhibition rate is greater than 85%)	5 (Level 5: the growth inhibition rate is greater than 85%)
